In patent publication US20160281050A1, “METHODS FOR TREATING A CULTURE OF HAEMATOCOCCUS PLUVIALIS FOR CONTAMINATION USING SALT AND HYDROGEN PEROXIDE” (HELIAE DEVELOPMENT LLC, priority 2015, published 2016):
Where two headings read alike, the source gives them in different places.

What was measured:
chytrids [1] = experiment: % chytrid infection in 230 L reactors, salt treatment (Example 12); type: cell-based
Protocol: This test was done side by side in flasks (0.1 L) and in reactors located in a greenhouse operating in conditions: reactor volume of 230 L; Daily PAR of 20 mol m^−2 d^−1; pH (not measured); and paddlewheel speed of 21 RPM. […] The flask cultures were mixed by shaking at 140 rpm and received 300-400 μmol/m^2 s of photosynthetically active radiation (PAR) in 12 hour light cycles and constant supply of 2.5% CO2. The motility of the culture was monitored by visual observation under a microscope. […] Nine 230 L reactors were also seeded with culture from bioreactor #2410 on the same day as the flasks and brought to 2 ppt concentration of salt. Once motility of the cells was reduced to <10% (day 3 of culture for flasks and day 2 for 230 L reactors) the level of salt was elevated to a point between 4-18 ppt and compared to the culture in two reactors remaining at 2 ppt salt. Flasks and 230 L reactors were monitored for percentage of cell lysis via visual observation under a microscope, culture dry weight (biomass accumulation in g/L), and percentage of chytrid infection via visual observation under a microscope. Carotenoid production, a proxy for determining astaxanthin, was quantified every other day of culture in the 230 L reactors using the UV method.

chytrids [2] = conditions: for % Chytrids Infection: 0.0105 mL/L every 6 hours
Description: Three 3,000 L open raceway pond bioreactor #'s MP1, MP2, & MP3 with paddlewheel mixing disposed outdoors were inoculated with cultures of green swimmer Haematococcus pluvialis (Strain 2) cells from outdoor reactor #2310 at a dilution ratio of 1 part culture samples to 3 parts reddening media containing 1 ppt salt (NaCl). […] MP2 was not treated with hydrogen peroxide to serve as an untreated control for comparison purposes. […] After hydrogen peroxide treatments began, the percent of the cultures infected with chytrids, percent of carotenoids by UV method, and cell dry weight (g/L) were quantified daily.

[3] = test system: Nitrogen fixing bacteria including Rhizobium, Emticicia, and Sinorhizobium; conditions: after the hydrogen peroxide treatments in bioreactor #2320 (from 20-40%)
Description: A series of Haematococcus pluvialis (Strain 1) cultures were compared using bacterial community sequencing (SSU rRNA 16s) to analyze the bacterial community of the cultures during a lysis event, a chytrid infection, and during treatment with hydrogen peroxide to determine if the bacteria community shifts or produces a detectable pattern.

[Cl-].[Na+] [NaCl, sodium chloride]
% Chytrid infection in 230L reactors (chytrids [1]; 4 ppt, 2 d): 0.00% | % Chytrid infection in 230L reactors (chytrids [1]; 4 ppt, 3 d): 1.67% | % Chytrid infection in 230L reactors (chytrids [1]; 4 ppt, 4 d): 0.00% | % Chytrid infection in 230L reactors (chytrids [1]; 4 ppt, 5 d): 0.00% | % Chytrid infection in 230L reactors (chytrids [1]; 4 ppt, 6 d): 0.00% | % Chytrid infection in 230L reactors (chytrids [1]; 4 ppt, 7 d): 1.67% | % Chytrid infection in 230L reactors (chytrids [1]; 4 ppt, 8 d): 0.00% | % Chytrid infection in 230L reactors (chytrids [1]; 4 ppt, 9 d): 11.67% | % Chytrid infection in 230L reactors (chytrids [1]; 4 ppt, 10 d): 30.00% | % Chytrid infection in 230L reactors (chytrids [1]; 4 ppt, 11 d): 36.67% | % Chytrid infection in 230L reactors (chytrids [1]; 4 ppt, 12 d): 65.00% | % Chytrid infection in 230L reactors (chytrids [1]; 5 ppt, 2 d): 1.67% | % Chytrid infection in 230L reactors (chytrids [1]; 5 ppt, 3 d): 0.00% | % Chytrid infection in 230L reactors (chytrids [1]; 5 ppt, 4 d): 1.67% | % Chytrid infection in 230L reactors (chytrids [1]; 5 ppt, 5 d): 0.00% | % Chytrid infection in 230L reactors (chytrids [1]; 5 ppt, 6 d): 0.00% | % Chytrid infection in 230L reactors (chytrids [1]; 5 ppt, 7 d): 8.33% | % Chytrid infection in 230L reactors (chytrids [1]; 5 ppt, 8 d): 0.00% | % Chytrid infection in 230L reactors (chytrids [1]; 5 ppt, 9 d): 10.00% | % Chytrid infection in 230L reactors (chytrids [1]; 5 ppt, 10 d): 3.33% | % Chytrid infection in 230L reactors (chytrids [1]; 5 ppt, 11 d): 13.33% | % Chytrid infection in 230L reactors (chytrids [1]; 5 ppt, 12 d): 28.33% | % Chytrid infection in 230L reactors (chytrids [1]; 6 ppt, 2 d): 1.67% | % Chytrid infection in 230L reactors (chytrids [1]; 6 ppt, 3 d): 0.00% | % Chytrid infection in 230L reactors (chytrids [1]; 6 ppt, 4 d): 1.67% | % Chytrid infection in 230L reactors (chytrids [1]; 6 ppt, 5 d): 1.67% | % Chytrid infection in 230L reactors (chytrids [1]; 6 ppt, 6 d): 1.67% | % Chytrid infection in 230L reactors (chytrids [1]; 6 ppt, 7 d): 5.00% | % Chytrid infection in 230L reactors (chytrids [1]; 6 ppt, 8 d): 3.33% | % Chytrid infection in 230L reactors (chytrids [1]; 6 ppt, 9 d): 0.00% | % Chytrid infection in 230L reactors (chytrids [1]; 6 ppt, 10 d): 1.67% | % Chytrid infection in 230L reactors (chytrids [1]; 6 ppt, 11 d): 0.00% | % Chytrid infection in 230L reactors (chytrids [1]; 6 ppt, 12 d): 15.00% | % Chytrid infection in 230L reactors (chytrids [1]; 7 ppt, 2 d): 3.33% | % Chytrid infection in 230L reactors (chytrids [1]; 7 ppt, 3 d): 0.00% | % Chytrid infection in 230L reactors (chytrids [1]; 7 ppt, 4 d): 0.00% | % Chytrid infection in 230L reactors (chytrids [1]; 7 ppt, 5 d): 1.67% | % Chytrid infection in 230L reactors (chytrids [1]; 7 ppt, 6 d): 0.00% | % Chytrid infection in 230L reactors (chytrids [1]; 7 ppt, 7 d): 5.00% | % Chytrid infection in 230L reactors (chytrids [1]; 7 ppt, 8 d): 1.67% | % Chytrid infection in 230L reactors (chytrids [1]; 7 ppt, 9 d): 3.33% | % Chytrid infection in 230L reactors (chytrids [1]; 7 ppt, 10 d): 5.00% | % Chytrid infection in 230L reactors (chytrids [1]; 7 ppt, 11 d): 0.00% | % Chytrid infection in 230L reactors (chytrids [1]; 7 ppt, 12 d): 3.33% | % Chytrid infection in 230L reactors (chytrids [1]; 8 ppt, 2 d): 0.00% | % Chytrid infection in 230L reactors (chytrids [1]; 8 ppt, 3 d): 0.00% | % Chytrid infection in 230L reactors (chytrids [1]; 8 ppt, 4 d): 0.00% | % Chytrid infection in 230L reactors (chytrids [1]; 8 ppt, 5 d): 1.67% | % Chytrid infection in 230L reactors (chytrids [1]; 8 ppt, 6 d): 0.00% | % Chytrid infection in 230L reactors (chytrids [1]; 8 ppt, 7 d): 0.00% | % Chytrid infection in 230L reactors (chytrids [1]; 8 ppt, 8 d): 0.00% | % Chytrid infection in 230L reactors (chytrids [1]; 8 ppt, 9 d): 0.00% | % Chytrid infection in 230L reactors (chytrids [1]; 8 ppt, 10 d): 1.67% | % Chytrid infection in 230L reactors (chytrids [1]; 8 ppt, 11 d): 1.67% | % Chytrid infection in 230L reactors (chytrids [1]; 8 ppt, 12 d): 3.33% | % Chytrid infection in 230L reactors (chytrids [1]; 10 ppt, 2 d): 0.00% | % Chytrid infection in 230L reactors (chytrids [1]; 10 ppt, 3 d): 0.00% | % Chytrid infection in 230L reactors (chytrids [1]; 10 ppt, 4 d): 1.67% | % Chytrid infection in 230L reactors (chytrids [1]; 10 ppt, 5 d): 0.00% | % Chytrid infection in 230L reactors (chytrids [1]; 10 ppt, 6 d): 0.00% | % Chytrid infection in 230L reactors (chytrids [1]; 10 ppt, 7 d): 0.00% | % Chytrid infection in 230L reactors (chytrids [1]; 10 ppt, 8 d): 0.00% | % Chytrid infection in 230L reactors (chytrids [1]; 10 ppt, 9 d): 1.67% | % Chytrid infection in 230L reactors (chytrids [1]; 10 ppt, 10 d): 0.00% | % Chytrid infection in 230L reactors (chytrids [1]; 10 ppt, 11 d): 6.67% | % Chytrid infection in 230L reactors (chytrids [1]; 10 ppt, 12 d): 3.33% | % Chytrid infection in 230L reactors (chytrids [1]; 18 ppt, 2 d): 0.00% | % Chytrid infection in 230L reactors (chytrids [1]; 18 ppt, 3 d): 0.00% | % Chytrid infection in 230L reactors (chytrids [1]; 18 ppt, 4 d): 0.00% | % Chytrid infection in 230L reactors (chytrids [1]; 18 ppt, 5 d): 3.33% | % Chytrid infection in 230L reactors (chytrids [1]; 18 ppt, 6 d): 0.00% | % Chytrid infection in 230L reactors (chytrids [1]; 18 ppt, 7 d): 0.00% | % Chytrid infection in 230L reactors (chytrids [1]; 18 ppt, 8 d): 1.67% | % Chytrid infection in 230L reactors (chytrids [1]; 18 ppt, 9 d): 3.33% | % Chytrid infection in 230L reactors (chytrids [1]; 18 ppt, 10 d): 0.00% | % Chytrid infection in 230L reactors (chytrids [1]; 18 ppt, 11 d): 1.67% | % Chytrid infection in 230L reactors (chytrids [1]; 18 ppt, 12 d): 1.67% | chytrid infection (chytrids [1]; treatments at 7 ppt and above in 230 L reactors): 5-10%

hydrogen peroxide [H2O2]
% Chytrids Infection (chytrids [2]; MP1, initial infection 20%, day 7): 23.3 ± 5.8% | % Chytrids Infection (chytrids [2]; MP1, initial infection 20%, day 8): 20.0 ± 5.0% | % Chytrids Infection (chytrids [2]; MP1, initial infection 20%, day 9): 30.0 ± 10.0% | % Chytrids Infection (chytrids [2]; MP1, initial infection 20%, day 10): 26.7 ± 2.9% | % Chytrids Infection (chytrids [2]; MP1, initial infection 20%, day 11): 61.7 ± 24.7% | % Chytrids Infection (chytrids [2]; MP1, initial infection 20%, day 12): 63.3 ± 16.1% | % Chytrids Infection (chytrids [2]; MP1, initial infection 20%, day 13): 73.3 ± 7.6% | % Chytrids Infection (chytrids [2]; MP1, initial infection 20%, day 14): 76.7 ± 17.6% | % Chytrids Infection (chytrids [2]; MP3, initial infection less than 5%, day 7): 1.7 ± 2.9% | % Chytrids Infection (chytrids [2]; MP3, initial infection less than 5%, day 8): 0.0 ± 0.0% | % Chytrids Infection (chytrids [2]; MP3, initial infection less than 5%, day 9): 1.7 ± 2.9% | % Chytrids Infection (chytrids [2]; MP3, initial infection less than 5%, day 10): 0.0 ± 0.0% | % Chytrids Infection (chytrids [2]; MP3, initial infection less than 5%, day 11): 0.0 ± 0.0% | % Chytrids Infection (chytrids [2]; MP3, initial infection less than 5%, day 12): 0.0 ± 0.0% | % Chytrids Infection (chytrids [2]; MP3, initial infection less than 5%, day 13): 3.3 ± 2.9% | % Chytrids Infection (chytrids [2]; MP3, initial infection less than 5%, day 14): 0.0 ± 0.0% | chytrids infection level (chytrids [2]; MP3 culture, below 5% when the treatments started, 1 ppt salt): below 5% | relative amount of nitrogen fixing bacteria in the dominant bacterial community [3]: less than 10%
